The source of these data is PubChem BioAssay AID2046 (NMMLSC, 2009).

Active and inactive are the calls of the source. The rule behind the calls is not given here.

The target in this test is Ras-related protein Rab-2A (Canis lupus familiaris) (UniProt P61105). Kind of test: Rab2 wildtype GTP-binding inhibitors, SAR follow-up, biochemical, additional analogs, bead-based flow cytometry, multiplex (AID 2046). The conditions noted are these: Rab2 wt; for Ki: measured here: Ki from fitted EC50.
Chain of Ras-related protein Rab-2A (Canis lupus familiaris) (P61105 whole entry, looked up): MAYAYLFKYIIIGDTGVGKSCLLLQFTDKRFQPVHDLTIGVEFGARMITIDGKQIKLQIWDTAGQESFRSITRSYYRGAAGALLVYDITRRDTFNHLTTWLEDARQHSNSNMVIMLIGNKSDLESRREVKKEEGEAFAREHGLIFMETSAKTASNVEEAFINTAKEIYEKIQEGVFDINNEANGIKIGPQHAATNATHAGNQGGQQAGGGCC

As to `O=Nc1c(-c2c(O)[nH]c3c(Br)cccc23)[nH]c2ccccc12`, the EC50 entry was “inactive” and the Ki came to 4.19 µM.
Take `O=Nc1c(-c2c(O)[nH]c3ccccc23)[nH]c2ccccc12`: the EC50 entry was “inactive”.
Consider `O=C1C(c2c(O)[nH]c3c(F)cccc23)=Nc2ccccc21`, for which the EC50 entry was “inactive”.
Still for that read-out and setting: the value for `O=C1N=c2ccccc2=C1c1[nH]c(=S)[nH]c1O` was “inactive”; that for `O=C1C(c2c(O)[nH]c3c(Br)cccc23)=Nc2ccccc21` was “inactive”.
Take `COc1ccc2cc([C@@H](C)C(=O)O)ccc2c1`: the Ki turned out to be 0.11 µM.
`O=C1C(c2c(O)[nH]c3c(Cl)cccc23)=Nc2ccccc21`: the EC50 entry was “inactive”.
Take `O=Nc1c(-c2c(O)[nH]c3c(F)cccc23)[nH]c2ccccc12`: the EC50 result is “inactive”.
Take `O=Nc1c(-c2c(O)[nH]c3ccc(Br)cc23)[nH]c2ccccc12`: the EC50 entry was “inactive” and the Ki was 4.15 µM.
With `O=C1C(c2c(O)[nH]c3ccccc23)=Nc2ccccc21`, the EC50 result was “inactive”.
The same measure, in the same setting: the value for `O=C1N=c2ccccc2=C1c1[nH]c(=O)[nH]c1O` was “inactive”; that for `O=Nc1c(-c2c(O)[nH]c3c(Cl)cccc23)[nH]c2ccccc12` was “inactive”; that for `O=C1C(c2c(O)[nH]c3ccc(Br)cc23)=Nc2ccccc21` was “inactive”.

For orientation: Ki means a measure of affinity in units of concentration, obtained from inhibition or displacement. A low value points to higher affinity.
